# Test results reported in PubChem BioAssay AID1963962 (Molecular Pharmacology Branch, DTP, NCI, 2024).
# pIC50: −log10 of the molar value.
# Tested on: 967376-340-R-J2-PDC multicell spheroid viability
# Experiment: Anticancer human tumor 967376-340-R-J2-PDC patient-derived colon adenocarcinoma cell line growth inhibition [PI3K]
# Settings: for pIC50: curve of first compound; for viability, T/C: stronger effect = lower value
# In short: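 Targeted small molecules plus PI3K inhibitors, half-log dose series from Cmax (default top 10 microM), were applied to heterotypic spheroids of cancer cells with HUVEC and MSCs. Viability indicated growth inhibition.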
# 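Also: spheroids exposed to agents for 7 days before read-out.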
# 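For viability, T/C in this document: luminescence used as surrogate of cell viability.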
structure (smiles),measurement,setting,value
CNC(=O)c1ccc(N2C(=S)N(c3ccc(C#N)c(C(F)(F)F)c3)C(=O)C2(C)C)cc1F + Cc1nc(NC(=O)N2CCCC2C(N)=O)sc1-c1ccnc(C(C)(C)C(F)(F)F)c1,pIC50,second compound 0.0316 µM,< 5.00
same,pIC50,second compound 0.1 µM,< 5.00
same,pIC50,second compound 0.316 µM,< 5.00
same,pIC50,second compound 1 µM,< 5.00
same,pIC50,second compound 3.16 µM,< 5.00
same,pIC50,second compound 10 µM,< 5.00
same,"viability, T/C","second compound 0.0316 µM, first compound 0.0316 µM",72.6%
same,"viability, T/C","second compound 0.0316 µM, first compound 0.1 µM",93.5%
same,"viability, T/C","second compound 0.0316 µM, first compound 0.316 µM",90.1%
same,"viability, T/C","second compound 0.0316 µM, first compound 1 µM",98.6%
same,"viability, T/C","second compound 0.0316 µM, first compound 3.16 µM",107%
same,"viability, T/C","second compound 0.0316 µM, first compound 10 µM",105%
same,"viability, T/C","second compound 0.1 µM, first compound 0.0316 µM",129%
same,"viability, T/C","second compound 0.1 µM, first compound 0.1 µM",85.5%
same,"viability, T/C","second compound 0.1 µM, first compound 0.316 µM",86.8%
same,"viability, T/C","second compound 0.1 µM, first compound 1 µM",88.5%
same,"viability, T/C","second compound 0.1 µM, first compound 3.16 µM",101%
same,"viability, T/C","second compound 0.1 µM, first compound 10 µM",84%
same,"viability, T/C","second compound 0.316 µM, first compound 0.0316 µM",64.2%
same,"viability, T/C","second compound 0.316 µM, first compound 0.1 µM",72.8%
same,"viability, T/C","second compound 0.316 µM, first compound 0.316 µM",92.6%
same,"viability, T/C","second compound 0.316 µM, first compound 1 µM",83.5%
same,"viability, T/C","second compound 0.316 µM, first compound 3.16 µM",115%
same,"viability, T/C","second compound 0.316 µM, first compound 10 µM",85.8%
same,"viability, T/C","second compound 1 µM, first compound 0.0316 µM",65.6%
same,"viability, T/C","second compound 1 µM, first compound 0.1 µM",70%
same,"viability, T/C","second compound 1 µM, first compound 0.316 µM",65.6%
same,"viability, T/C","second compound 1 µM, first compound 1 µM",68.5%
same,"viability, T/C","second compound 1 µM, first compound 3.16 µM",79.7%
same,"viability, T/C","second compound 1 µM, first compound 10 µM",75%
same,"viability, T/C","second compound 3.16 µM, first compound 0.0316 µM",58.9%
same,"viability, T/C","second compound 3.16 µM, first compound 0.1 µM",62.6%
same,"viability, T/C","second compound 3.16 µM, first compound 0.316 µM",58.7%
same,"viability, T/C","second compound 3.16 µM, first compound 1 µM",55.9%
same,"viability, T/C","second compound 3.16 µM, first compound 3.16 µM",63.6%
same,"viability, T/C","second compound 3.16 µM, first compound 10 µM",59%
same,"viability, T/C","second compound 10 µM, first compound 0.0316 µM",63.9%
same,"viability, T/C","second compound 10 µM, first compound 0.1 µM",55%
same,"viability, T/C","second compound 10 µM, first compound 0.316 µM",53.2%
same,"viability, T/C","second compound 10 µM, first compound 1 µM",57.3%
same,"viability, T/C","second compound 10 µM, first compound 3.16 µM",47.3%
same,"viability, T/C","second compound 10 µM, first compound 10 µM",59.5%
Cn1cnc2c(F)c(Nc3ccc(Br)cc3Cl)c(C(=O)NOCCO)cc21 + Cc1nc(NC(=O)N2CCCC2C(N)=O)sc1-c1ccnc(C(C)(C)C(F)(F)F)c1,pIC50,second compound 0.0316 µM,6.18
same,pIC50,second compound 0.1 µM,6.17
same,pIC50,second compound 0.316 µM,6.44
same,pIC50,second compound 1 µM,6.52
same,pIC50,second compound 3.16 µM,7.01
same,pIC50,second compound 10 µM,7.40
same,"viability, T/C","second compound 0.0316 µM, first compound 0.00949 µM",89%
same,"viability, T/C","second compound 0.0316 µM, first compound 0.03 µM",101%
same,"viability, T/C","second compound 0.0316 µM, first compound 0.0949 µM",104%
same,"viability, T/C","second compound 0.0316 µM, first compound 0.3 µM",60%
same,"viability, T/C","second compound 0.0316 µM, first compound 0.949 µM",48.1%
same,"viability, T/C","second compound 0.0316 µM, first compound 3 µM",19.7%
same,"viability, T/C","second compound 0.1 µM, first compound 0.00949 µM",88.3%
same,"viability, T/C","second compound 0.1 µM, first compound 0.03 µM",56.1%
same,"viability, T/C","second compound 0.1 µM, first compound 0.0949 µM",76.7%
same,"viability, T/C","second compound 0.1 µM, first compound 0.3 µM",61.8%
same,"viability, T/C","second compound 0.1 µM, first compound 0.949 µM",43.8%
same,"viability, T/C","second compound 0.1 µM, first compound 3 µM",28.7%
same,"viability, T/C","second compound 0.316 µM, first compound 0.00949 µM",68.5%
same,"viability, T/C","second compound 0.316 µM, first compound 0.03 µM",81.5%
same,"viability, T/C","second compound 0.316 µM, first compound 0.0949 µM",62.5%
same,"viability, T/C","second compound 0.316 µM, first compound 0.3 µM",56.7%
same,"viability, T/C","second compound 0.316 µM, first compound 0.949 µM",27%
same,"viability, T/C","second compound 0.316 µM, first compound 3 µM",16%
same,"viability, T/C","second compound 1 µM, first compound 0.00949 µM",68.8%
same,"viability, T/C","second compound 1 µM, first compound 0.03 µM",64.4%
same,"viability, T/C","second compound 1 µM, first compound 0.0949 µM",61.1%
same,"viability, T/C","second compound 1 µM, first compound 0.3 µM",51.6%
same,"viability, T/C","second compound 1 µM, first compound 0.949 µM",28.4%
same,"viability, T/C","second compound 1 µM, first compound 3 µM",15.6%
same,"viability, T/C","second compound 3.16 µM, first compound 0.00949 µM",54%
same,"viability, T/C","second compound 3.16 µM, first compound 0.03 µM",64.8%
same,"viability, T/C","second compound 3.16 µM, first compound 0.0949 µM",49.2%
same,"viability, T/C","second compound 3.16 µM, first compound 0.3 µM",26.6%
same,"viability, T/C","second compound 3.16 µM, first compound 0.949 µM",9.72%
same,"viability, T/C","second compound 3.16 µM, first compound 3 µM",3.22%
same,"viability, T/C","second compound 10 µM, first compound 0.00949 µM",54.6%
same,"viability, T/C","second compound 10 µM, first compound 0.03 µM",49.7%
same,"viability, T/C","second compound 10 µM, first compound 0.0949 µM",44.6%
same,"viability, T/C","second compound 10 µM, first compound 0.3 µM",28.8%
same,"viability, T/C","second compound 10 µM, first compound 0.949 µM",5.99%
same,"viability, T/C","second compound 10 µM, first compound 3 µM",1.33%
